The results in this text go back to ChEMBL document CHEMBL3864167, “Structure-Activity Relationship, Drug Metabolism and Pharmacokinetics Properties Optimization, and in Vivo Studies of New Brain Penetrant Triple T-Type Calcium Channel Blockers” (J Med Chem, 2016).

As a reminder, the IC50 is the concentration needed to halve the response being measured.

Series [1] is described as follows: Intrinsic clearance in human liver microsomes at 1 uM up to 15 mins in presence of NADPH by LC-MS-MS analysis. Format: ADME. The conditions noted are these: read-out: CLH. In general terms: Microsomes from liver hold many membrane-bound enzymes, among them those of drug oxidation.
The target in series [2] is Voltage-dependent T-type calcium channel subunit alpha-1G (Homo sapiens, UniProt O43497). Put plainly: Channel blocking activity at recombinant human CaV 3.1 channel expressed in HEK293 cells assessed as inhibition of Ca2+ flux preincubated for 3 mins followed by CaCl2 addition by fluo-4 dye-based FLIPR assay. The series is classed as cell-based. (A change in cytosolic calcium serves as a functional read-out for many receptors and channels.)

The target in series [3] is Voltage-dependent T-type calcium channel subunit alpha-1H (Homo sapiens, UniProt O95180). Briefly: Channel blocking activity at recombinant human CaV 3.2 channel expressed in HEK293 cells assessed as inhibition of Ca2+ flux preincubated for 3 mins followed by CaCl2 addition by fluo-4 dye-based FLIPR assay. The series is classed as cell-based.
For series [4], the target named is Voltage-dependent T-type calcium channel subunit alpha-1I (Homo sapiens, UniProt Q9P0X4). Put plainly: Channel blocking activity at recombinant human CaV 3.3 channel expressed in HEK293 cells assessed as inhibition of Ca2+ flux preincubated for 3 mins followed by CaCl2 addition by fluo-4 dye-based FLIPR assay. The series is classed as cell-based.
Voltage-dependent T-type calcium channel subunit alpha-1I, sequence (Q9P0X4 whole entry): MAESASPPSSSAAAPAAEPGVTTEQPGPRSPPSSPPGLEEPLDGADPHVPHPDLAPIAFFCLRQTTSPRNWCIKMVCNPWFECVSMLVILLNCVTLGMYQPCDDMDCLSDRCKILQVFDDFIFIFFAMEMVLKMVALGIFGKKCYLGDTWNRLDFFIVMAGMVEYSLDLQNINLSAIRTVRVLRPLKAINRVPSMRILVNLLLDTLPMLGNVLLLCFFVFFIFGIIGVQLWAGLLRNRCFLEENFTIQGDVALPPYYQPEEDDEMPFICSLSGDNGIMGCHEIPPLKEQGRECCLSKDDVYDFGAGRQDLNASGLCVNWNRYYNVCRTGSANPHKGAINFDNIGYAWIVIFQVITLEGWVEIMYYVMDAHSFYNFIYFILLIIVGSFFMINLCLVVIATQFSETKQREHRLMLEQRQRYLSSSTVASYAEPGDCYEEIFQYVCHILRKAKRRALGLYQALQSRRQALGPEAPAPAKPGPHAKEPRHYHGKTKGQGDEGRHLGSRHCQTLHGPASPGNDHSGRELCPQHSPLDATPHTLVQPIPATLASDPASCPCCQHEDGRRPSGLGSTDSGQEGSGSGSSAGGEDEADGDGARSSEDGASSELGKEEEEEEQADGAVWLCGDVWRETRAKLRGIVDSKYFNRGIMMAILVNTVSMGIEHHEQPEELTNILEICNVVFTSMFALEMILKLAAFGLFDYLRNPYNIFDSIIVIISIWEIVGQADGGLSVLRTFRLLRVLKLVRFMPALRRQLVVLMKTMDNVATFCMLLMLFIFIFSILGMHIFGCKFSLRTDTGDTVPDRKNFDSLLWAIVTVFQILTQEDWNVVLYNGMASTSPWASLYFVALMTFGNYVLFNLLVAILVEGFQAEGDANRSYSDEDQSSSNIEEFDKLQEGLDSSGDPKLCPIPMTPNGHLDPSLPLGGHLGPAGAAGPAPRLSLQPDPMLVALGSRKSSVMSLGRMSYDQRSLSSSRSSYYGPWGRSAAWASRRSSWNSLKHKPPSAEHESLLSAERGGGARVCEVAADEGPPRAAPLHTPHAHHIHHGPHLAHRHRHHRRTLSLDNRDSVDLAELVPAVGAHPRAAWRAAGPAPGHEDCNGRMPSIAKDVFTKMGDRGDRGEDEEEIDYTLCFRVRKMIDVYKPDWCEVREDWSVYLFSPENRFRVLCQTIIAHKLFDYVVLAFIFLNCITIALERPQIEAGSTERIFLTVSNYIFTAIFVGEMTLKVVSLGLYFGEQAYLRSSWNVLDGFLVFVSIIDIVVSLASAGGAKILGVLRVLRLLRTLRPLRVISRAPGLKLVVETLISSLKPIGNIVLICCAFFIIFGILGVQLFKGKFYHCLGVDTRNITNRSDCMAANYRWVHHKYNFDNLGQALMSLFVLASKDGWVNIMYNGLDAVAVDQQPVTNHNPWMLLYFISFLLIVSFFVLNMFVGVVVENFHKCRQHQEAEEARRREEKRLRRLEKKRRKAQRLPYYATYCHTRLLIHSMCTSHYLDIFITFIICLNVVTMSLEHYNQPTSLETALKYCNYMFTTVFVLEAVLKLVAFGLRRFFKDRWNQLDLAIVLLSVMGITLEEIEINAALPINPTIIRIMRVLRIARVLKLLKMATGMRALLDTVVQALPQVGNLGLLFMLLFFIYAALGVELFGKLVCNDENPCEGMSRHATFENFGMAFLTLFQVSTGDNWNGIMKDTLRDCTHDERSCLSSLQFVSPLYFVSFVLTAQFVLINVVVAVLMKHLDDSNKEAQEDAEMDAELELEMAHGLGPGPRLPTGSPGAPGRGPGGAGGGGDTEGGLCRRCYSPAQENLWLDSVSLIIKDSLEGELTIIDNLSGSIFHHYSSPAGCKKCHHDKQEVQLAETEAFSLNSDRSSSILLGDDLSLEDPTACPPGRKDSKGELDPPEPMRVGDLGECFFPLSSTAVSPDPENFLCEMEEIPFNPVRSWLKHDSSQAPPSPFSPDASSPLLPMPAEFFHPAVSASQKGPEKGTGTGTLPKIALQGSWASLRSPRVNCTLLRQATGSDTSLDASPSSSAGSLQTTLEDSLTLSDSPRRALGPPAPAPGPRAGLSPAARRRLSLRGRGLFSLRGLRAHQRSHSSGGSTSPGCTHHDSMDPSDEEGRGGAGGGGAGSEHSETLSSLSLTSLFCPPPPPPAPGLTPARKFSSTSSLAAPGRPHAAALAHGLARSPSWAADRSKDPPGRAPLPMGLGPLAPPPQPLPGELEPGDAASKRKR

Voltage-dependent T-type calcium channel subunit alpha-1H, sequence (O95180 whole entry): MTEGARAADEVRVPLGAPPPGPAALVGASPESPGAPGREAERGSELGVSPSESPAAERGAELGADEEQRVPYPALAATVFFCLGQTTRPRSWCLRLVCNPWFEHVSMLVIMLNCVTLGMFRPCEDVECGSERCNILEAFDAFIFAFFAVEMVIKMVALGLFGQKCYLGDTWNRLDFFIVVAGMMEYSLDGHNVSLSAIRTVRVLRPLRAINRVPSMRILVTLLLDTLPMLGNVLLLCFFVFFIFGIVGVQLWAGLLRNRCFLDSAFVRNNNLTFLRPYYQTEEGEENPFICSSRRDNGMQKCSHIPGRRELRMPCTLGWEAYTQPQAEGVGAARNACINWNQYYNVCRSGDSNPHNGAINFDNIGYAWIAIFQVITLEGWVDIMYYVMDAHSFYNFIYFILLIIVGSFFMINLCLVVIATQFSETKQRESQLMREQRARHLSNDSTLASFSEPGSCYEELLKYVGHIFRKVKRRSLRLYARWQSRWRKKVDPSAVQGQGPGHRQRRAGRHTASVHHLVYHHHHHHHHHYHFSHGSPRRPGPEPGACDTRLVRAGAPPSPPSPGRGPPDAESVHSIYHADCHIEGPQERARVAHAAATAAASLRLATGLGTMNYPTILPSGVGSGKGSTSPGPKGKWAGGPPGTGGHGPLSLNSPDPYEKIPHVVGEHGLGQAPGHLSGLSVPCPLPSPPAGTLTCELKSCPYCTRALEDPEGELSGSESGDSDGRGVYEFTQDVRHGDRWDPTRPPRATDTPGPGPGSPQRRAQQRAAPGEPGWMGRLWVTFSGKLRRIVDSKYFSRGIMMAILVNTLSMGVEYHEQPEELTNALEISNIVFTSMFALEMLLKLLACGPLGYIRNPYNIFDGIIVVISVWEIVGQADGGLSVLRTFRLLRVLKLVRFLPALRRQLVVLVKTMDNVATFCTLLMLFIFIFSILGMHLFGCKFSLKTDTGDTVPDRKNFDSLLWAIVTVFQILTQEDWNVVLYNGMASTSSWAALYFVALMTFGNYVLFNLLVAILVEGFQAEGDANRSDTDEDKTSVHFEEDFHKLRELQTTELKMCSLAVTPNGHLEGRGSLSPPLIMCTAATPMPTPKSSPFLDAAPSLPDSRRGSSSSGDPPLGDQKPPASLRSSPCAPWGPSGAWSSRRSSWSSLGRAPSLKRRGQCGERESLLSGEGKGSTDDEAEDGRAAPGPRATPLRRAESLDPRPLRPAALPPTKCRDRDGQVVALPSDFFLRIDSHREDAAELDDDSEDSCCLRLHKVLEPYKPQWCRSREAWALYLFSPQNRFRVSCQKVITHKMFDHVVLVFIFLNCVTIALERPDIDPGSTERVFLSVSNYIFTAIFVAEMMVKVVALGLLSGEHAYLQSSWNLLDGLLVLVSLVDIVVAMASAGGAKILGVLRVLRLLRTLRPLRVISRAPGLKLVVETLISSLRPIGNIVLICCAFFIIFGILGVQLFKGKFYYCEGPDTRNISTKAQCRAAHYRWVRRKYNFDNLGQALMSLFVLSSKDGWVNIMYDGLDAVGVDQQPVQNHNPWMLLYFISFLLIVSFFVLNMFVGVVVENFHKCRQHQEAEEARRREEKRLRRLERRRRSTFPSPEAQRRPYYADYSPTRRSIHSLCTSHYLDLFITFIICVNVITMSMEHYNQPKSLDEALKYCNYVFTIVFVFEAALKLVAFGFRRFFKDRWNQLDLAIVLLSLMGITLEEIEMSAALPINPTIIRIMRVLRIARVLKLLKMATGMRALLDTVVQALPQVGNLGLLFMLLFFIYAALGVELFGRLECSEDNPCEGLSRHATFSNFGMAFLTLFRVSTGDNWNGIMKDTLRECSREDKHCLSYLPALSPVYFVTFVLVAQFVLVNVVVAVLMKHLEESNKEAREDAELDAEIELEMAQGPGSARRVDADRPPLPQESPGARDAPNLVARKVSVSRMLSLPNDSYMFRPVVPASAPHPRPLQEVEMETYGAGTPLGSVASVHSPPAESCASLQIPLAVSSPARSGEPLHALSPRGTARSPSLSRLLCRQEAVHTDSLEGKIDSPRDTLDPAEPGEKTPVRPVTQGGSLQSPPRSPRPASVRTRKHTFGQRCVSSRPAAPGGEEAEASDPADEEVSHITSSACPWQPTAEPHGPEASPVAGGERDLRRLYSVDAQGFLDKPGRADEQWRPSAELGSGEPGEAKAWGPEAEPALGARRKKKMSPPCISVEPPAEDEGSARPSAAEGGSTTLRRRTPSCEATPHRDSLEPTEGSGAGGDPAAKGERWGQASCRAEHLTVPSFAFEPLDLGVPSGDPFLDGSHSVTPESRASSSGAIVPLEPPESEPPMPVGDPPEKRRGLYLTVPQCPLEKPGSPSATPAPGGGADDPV

As for `C[C@@H]1CN(Cc2cnc(C(F)(F)F)s2)c2ccccc2[C@H](C)N1C(=O)Nc1cccnc1` (racemic), in series [1], the microsomal CLint at 1 µM was more than 1250 µL/min/mg. For the same compound, the IC50 in series [2] came to 33 nM; in series [3], 42 nM; in series [4], 33 nM.
As to `[2H]C([2H])(c1ccccc1)N1C[C@@H](C)N(C(=O)Nc2cccnc2)[C@@H](C)c2ccccc21` (racemic), the microsomal CLint at 1 µM in series [1] was determined as 1110 µL/min/mg. Moreover, the IC50 in series [2] was found to be 27 nM; in series [3] it was 25 nM; in series [4] it was 4 nM.
On the same counts, the results for `CC(C)CCN1C[C@@H](C)N(C(=O)Nc2cccnc2)[C@@H](C)c2ccccc21` (racemic) are more than 1250 µL/min/mg, 23 nM, 91 nM and 12 nM.
`C[C@@H]1CN(Cc2ccc(F)cc2)c2ccccc2[C@H](C)N1C(=O)Nc1cccnc1` (racemic): the microsomal CLint at 1 µM in series [1] is more than 1250 µL/min/mg. The IC50 in series [2] was determined as 25 nM; in series [3] it was 31 nM; in series [4], 7 nM.
The corresponding values for `C[C@@H]1CN(Cc2ccccc2)c2ncccc2[C@H](C)N1C(=O)NCc1ccccc1` (racemic) are 1060 µL/min/mg, 15 nM, 31 nM and 8 nM.
With `C[C@@H]1CN(Cc2ccccc2)c2ccccc2[C@H](C)N1S(=O)(=O)c1cn(C)cn1` (racemic), the IC50 in series [2] was 576 nM; in series [3], 1490 nM; in series [4], 210 nM.
As to `C[C@@H]1C(=O)N(Cc2ccccc2)c2ccccc2[C@H](C)N1C(=O)NCc1ccccc1` (racemic), in series [1], the microsomal CLint at 1 µM was more than 1250 µL/min/mg. The IC50 in series [2] stood at 304 nM; in series [3], 682 nM; in series [4], 259 nM.
On the same counts, the results for `COc1ccc(CN2C[C@@H](C)N(C(=O)NCc3ccccc3)[C@@H](C)c3ccccc32)cn1` (racemic) are more than 1250 µL/min/mg, 45 nM, 33 nM and 10 nM.
On the same counts, the results for `C[C@@H]1CN(Cc2cccnc2F)c2ccccc2[C@H](C)N1C(=O)NCc1ccccc1` (racemic) are more than 1250 µL/min/mg, 53 nM, 49 nM and 10 nM.
As for `C[C@H]1c2ccccc2N(Cc2ccccc2)[C@@H](C)CN1C(=O)NCc1ccccc1` (racemic), the IC50 in series [2] is 293 nM; in series [3] it was 464 nM; in series [4] it was 1000 nM.
On the same counts, the results for `C[C@@H]1CN(Cc2ccccc2)c2cc(Br)ccc2[C@H](C)N1C(=O)Nc1cccnc1` (racemic) are 286 nM, 428 nM and 137 nM.
`C[C@@H]1CN(Cc2ccccc2)c2ncc(F)cc2[C@H](C)N1C(=O)NCc1ccccc1` (racemic): the microsomal CLint at 1 µM in series [1] was determined as 837 µL/min/mg. Further, the values for the IC50 in series [2], in series [3] and in series [4] were 65 nM, 95 nM and 15 nM, respectively.
On to `C[C@@H]1c2ccncc2N(Cc2ccccc2)C[C@H](C)N1C(=O)NCc1ccccc1`, for which the IC50 is more than 10000 nM in series [2], more than 11000 nM in series [3] and more than 10000 nM in series [4].
`COc1ccc2c(c1)[C@H](C)N(C(=O)Nc1cccnc1)[C@H](C)CN2Cc1ccccc1` (racemic): in series [1], the microsomal CLint at 1 µM came to 521 µL/min/mg. In addition, the IC50 in series [2] turned out to be 390 nM; in series [3], 530 nM; in series [4], 100 nM.
On the same counts, the results for `C[C@@H]1CN(Cc2cccc(F)c2F)c2cnccc2[C@H](C)N1C(=O)NCc1ccccc1` (racemic) are 212 µL/min/mg, 38 nM, 72 nM and 13 nM.
On to `C[C@@H]1CN(Cc2ccc(C(F)(F)F)o2)c2ccccc2[C@H](C)N1C(=O)Nc1cccnc1` (racemic), for which, in series [1], the microsomal CLint at 1 µM is more than 1250 µL/min/mg. The IC50 in series [2] is 4 nM; in series [3] it was 14 nM; in series [4], 9 nM.
On the same counts, the results for `COc1ccc(CNC(=O)N2[C@H](C)CN(Cc3ccccc3)c3ccccc3[C@@H]2C)cc1` (racemic) are more than 1250 µL/min/mg, 8 nM, 14 nM and 6 nM.
The corresponding values for `C[C@@H]1CN(CC2CCCC2)c2ccccc2[C@H](C)N1C(=O)Nc1cccnc1` (racemic) are 1150 µL/min/mg, 23 nM, 62 nM and 14 nM.
The corresponding values for `C[C@@H]1CN(c2ccccc2)c2ccccc2[C@H](C)N1C(=O)NCc1ccccc1` (racemic) are more than 1250 µL/min/mg, 256 nM, 209 nM and 225 nM.
On to `C[C@@H]1CN(Cc2ccncc2)c2ccccc2[C@H](C)N1C(=O)NCc1ccccc1` (racemic), for which the IC50 in series [2] was more than 7260 nM; in series [3], more than 8580 nM; in series [4], 1710 nM.
With `C[C@@H]1CN(Cc2ccccc2)c2ccccc2[C@H](C)N1C(=O)N(C)Cc1ccccc1` (racemic), the results for the IC50 in series [2], in series [3] and in series [4] were 457 nM, 835 nM and 892 nM, respectively.
On the same counts, the results for `COc1cccc2c1[C@H](C)N(C(=O)Nc1cccnc1)[C@H](C)CN2Cc1ccccc1` (racemic) are 188 nM, 305 nM and 130 nM.
On the same counts, the results for `C[C@@H]1CN(S(=O)(=O)c2ccccc2)c2ccccc2[C@H](C)N1C(=O)Nc1cccnc1` (racemic) are more than 10000 nM, 4690 nM and 1810 nM.
On the same counts, the results for `C[C@@H]1CN(Cc2ccccc2)c2cccnc2[C@H](C)N1C(=O)NCc1ccccc1` (racemic) are 597 nM, 212 nM and 91 nM.
For `C[C@@H]1CN(Cc2ccccc2)c2ccccc2[C@H](C)N1C(=O)NCc1ccccc1`, the results for the IC50 in series [2], in series [3] and in series [4] were 5 nM, 17 nM and 2 nM, respectively.
The corresponding values for `C[C@@H]1CN(CCOC(C)(C)C)c2ccccc2[C@H](C)N1C(=O)NCc1ccccc1` (racemic) are 35 nM, 44 nM and 12 nM.
The corresponding values for `C[C@@H]1CN(C(=O)c2ccccc2)c2ccccc2[C@H](C)N1C(=O)NCc1ccccc1` (racemic) are 6070 nM, more than 11500 nM and more than 10000 nM.
For the compound `COc1cccc2c1N(Cc1ccccc1)C[C@@H](C)N(C(=O)Nc1cccnc1)[C@H]2C` (racemic), the values for the IC50 in series [2], in series [3] and in series [4] were more than 5300 nM, more than 6500 nM and more than 9000 nM, respectively.
The corresponding values for `C[C@@H]1CN(C(=O)NCc2ccccc2)[C@@H](C)c2ccccc2N1Cc1ccccc1` (racemic) are 211 nM, 198 nM and 326 nM.
The corresponding values for `C[C@@H]1CN(Cc2ccccc2)c2c(cnn2C)[C@H](C)N1C(=O)NCc1ccccc1` (racemic) are more than 9400 nM, more than 7300 nM and more than 10000 nM.
Regarding `C[C@@H]1CN(Cc2ccccc2)c2ccncc2[C@H](C)N1C(=O)NCc1ccccc1` (racemic), the IC50 was 6280 nM in series [2], more than 11000 nM in series [3] and more than 8740 nM in series [4].
`COc1cc2c(cc1F)N(Cc1ccccc1)C[C@@H](C)N(C(=O)Nc1cccnc1)[C@H]2C` (racemic): the IC50 in series [2] was found to be 370 nM; in series [3], 414 nM; in series [4], 73 nM.
On the same counts, the results for `C[C@@H]1CN(Cc2ccccc2)c2nnccc2[C@H](C)N1C(=O)NCc1ccccc1` (racemic) are 1140 nM, 695 nM and 206 nM.
The corresponding values for `C[C@@H]1CN(Cc2cccc(F)c2F)c2ccccc2[C@H](C)N1C(=O)NCc1ccccc1` (racemic) are 5 nM, 9 nM and 4 nM.
On the same counts, the results for `C[C@@H]1CN(Cc2ccccc2)c2ccccc2[C@H](C)N1CC1CCOCC1` (racemic) are 6110 nM, 7410 nM and more than 10000 nM.
With `C[C@@H]1CN(Cc2ccccn2)c2ccccc2[C@H](C)N1C(=O)NCc1ccccc1` (racemic), the results for the IC50 in series [2], in series [3] and in series [4] were 605 nM, 479 nM and 97 nM, respectively.
The corresponding values for `C[C@@H]1c2ccccc2N(Cc2ccccc2)C[C@H](C)N1C(=O)NCc1ccccc1` are 262 nM, 358 nM and 641 nM.
Turning to `C[C@@H]1CN(Cc2ccccc2)c2cc(S(C)(=O)=O)ccc2[C@H](C)N1C(=O)Nc1cccnc1` (racemic), the IC50 in series [2] was more than 10000 nM; in series [3], more than 8000 nM; in series [4], more than 10000 nM.
`C[C@@H]1CN(Cc2cccnc2)c2ccccc2[C@H](C)N1C(=O)NCc1ccccc1` (racemic): the IC50 in series [2] is 476 nM; in series [3], 500 nM; in series [4] it was 95 nM.
The corresponding values for `Cc1ccc2c(c1)N(Cc1ccccc1)C[C@@H](C)N(C(=O)Nc1cccnc1)[C@H]2C` (racemic) are 227 nM, 231 nM and 74 nM.
On the same counts, the results for `C[C@@H]1CN(Cc2ccccc2)c2ccccc2[C@H](C)N1C(=O)OCc1ccccc1` (racemic) are 420 nM, 841 nM and 473 nM.
The corresponding values for `C[C@@H]1CN(Cc2ccccc2)c2cncnc2[C@H](C)N1C(=O)NCc1ccccc1` (racemic) are more than 8500 nM, more than 6400 nM and 1000 nM.
